Data on one substance can be found in patent publication US8278066B2, “Truncated somatostatin receptors” (Board of Regents, The University of Texas System, priority 2001, dated 2012).

Experiment [1] concerns the target full length SSTR2A fusion protein (HT1080 clones 21, 3, 11) (Homo sapiens, UniProt P30874).
Experiment [2] has as its target intracellular tail minus SSTR2A fusion protein (HT1080 clones tail-1, tail-4) (Homo sapiens, UniProt P30874).

Sequence of full length SSTR2A fusion protein (HT1080 clones 21, 3, 11) (P30874 whole entry, the tested form may be a part): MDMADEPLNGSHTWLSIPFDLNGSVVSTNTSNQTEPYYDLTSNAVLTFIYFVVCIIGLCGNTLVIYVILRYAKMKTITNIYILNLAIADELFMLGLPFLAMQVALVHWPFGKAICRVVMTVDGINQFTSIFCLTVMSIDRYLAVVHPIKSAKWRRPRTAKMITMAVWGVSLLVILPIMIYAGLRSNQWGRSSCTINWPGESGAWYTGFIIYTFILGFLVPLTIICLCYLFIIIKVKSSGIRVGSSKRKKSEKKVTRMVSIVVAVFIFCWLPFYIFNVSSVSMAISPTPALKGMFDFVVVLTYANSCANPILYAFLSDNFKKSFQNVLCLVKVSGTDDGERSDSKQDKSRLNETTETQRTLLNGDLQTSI
Sequence of intracellular tail minus SSTR2A fusion protein (HT1080 clones tail-1, tail-4) (P30874 1-314): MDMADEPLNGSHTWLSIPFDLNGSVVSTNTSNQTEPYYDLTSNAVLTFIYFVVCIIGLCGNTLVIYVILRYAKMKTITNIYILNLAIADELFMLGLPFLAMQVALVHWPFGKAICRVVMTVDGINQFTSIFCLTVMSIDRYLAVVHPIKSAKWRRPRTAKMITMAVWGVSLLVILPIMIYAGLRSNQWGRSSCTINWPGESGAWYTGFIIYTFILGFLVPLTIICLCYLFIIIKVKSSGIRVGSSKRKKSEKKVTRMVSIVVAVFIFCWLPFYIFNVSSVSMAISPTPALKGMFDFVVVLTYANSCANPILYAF

As for ^111In-octreotide, in experiment [1], the “Specific binding, order among clones” value was “greater for clone 21 than 3 than 11” and the “counts per minute bound” value is on record as “more counts per minute without the addition of cold somastotin-28 then with its addition”. The “counts per minute bound” value in experiment [2] is on record as “more counts per minute without the addition of cold somastotin-28 then with its addition”.
